In US8148424B2, “Tocopherols, tocotrienols, other chroman and side chain derivatives and uses thereof” (Research Development Foundation, priority 1998, dated 2012):

Tests used:
MCF-7 cells = experiment: Apoptosis by DAPI staining (Example 8); assay type: cell-based, human; conditions: Homo sapiens, MCF7, 72 h, 5% serum, DAPI staining at three day treatment
Experimental: (§1) MDA-MB-435 and MCF-7 cells at 1.5×10^5/well in 12 well plates for apoptosis and 1.5×10^4/well in 96 well plates for DNA synthesis arrest were incubated overnight in culture media and treated with α-tocopherol, α-tocotrinel, compound 1, 6-0-carboxymethyl alpha-tocotrienol (6-0-CM-α-T, 44), and vitamin E succinate (VES) at different concentrations in experimental media (2% serum for MDA-MB-435 cells and 5% serum for MCF-7 cells). DNA synthesis arrest was determined by ^3H-uptake at one day treatment and apoptosis was detected by DAPI staining at three day treatment. EC50 was calculated as the dosage of test compounds that gave 50% growth inhibition.

MDA-MB-435 cells = experiment: Apoptosis by DAPI staining (Example 8); assay type: cell-based, human; conditions: Homo sapiens, 72 h; MDA-MB-435; 2% serum; DAPI staining at three day treatment
Experimental: as §1

[1] = test system: MDA-MB-435 Human Breast Cancer Cells Transplanted into Nude Mice; experiment: Preclinical chemotherapeutic xenograft study; assay type: in vivo; conditions: for Percent mean tumor weight gain (mg) following treatments: relative to day 1 of same group
Experimental: (§2) For the preclinical chemotherapeutic studies, in the absence of an maximum tolerated dose, the mice are supplemented with 30 and 20 mgs/0.1 ml by gavage daily for 21 days. Compound 1 is dissolved in 100% ethanol at 2 grams of compound 1/5 mls of ethanol, and diluted in peanut oil (nonsupplemented vitamin E) to yield 30 and 20 mgs of compound 1 per 0.1 ml. Vehicle control consisted of a mixture of ethanol and peanut oil equivalents. The preclinical chemotherapeutic studies are conducted with compound 1, utilizing human MDA-MB-435 human breast cancer cells, human DU-145 prostate cancer cells, and human HT-20 colon tumor cells transplanted into Balb/c immune compromised nude mice.
(§3) A total of 40 immune compromised nude mice are utilized for testing each test compound (two treatment groups at 20 and 30 mg/day) in each tumor cell type. […] Tumor cells are transplanted subcutaneously into the left flank and permitted to grow to approximately 70 mg in size, test compound treatments by daily gavage are initiated, and continue for a total of 21 days. Mice are monitored daily for tumor size by caliper measurements. Mice are treated for 21 days; however, the mice are sacrificed when the tumors of the vehicle control reached 500 mg in weight. At the completion of the protocol, tumors are excised and tumor size established by weight. At the time of sacrifice, serum, tumor, and heart muscle are taken from animals in the two compound 1 test groups in order to establish levels of compound 1 via HPLC analyses (data not included). The chemotherapeutic effectiveness of compound 1 administered daily at 30 and 20 mgs/day is determined by comparing the tumor size of the two treatment groups with the vehicle control group for each of the three tumor types, and by comparing the size of the tumor in the two treatment groups with the tumor group from the positive control. Treatment is for 21 days, experiments are continued until mean weight of tumor for vehicle control reaches 500 mgs.

[2] = test system: DU-145 Human Prostate Cancer Cells Transplanted into Nude Mice; experiment: Preclinical chemotherapeutic xenograft study; assay type: in vivo; conditions: for Percent mean tumor weight gain (mg) following treatments: relative to day 1 of same group
Experimental: as §2, §3

[3] = test system: HT-29 Human Colon Cancer Cells Transplanted into Nude Mice; experiment: Preclinical chemotherapeutic xenograft study; assay type: in vivo; conditions: for Percent mean tumor weight gain (mg) following treatments: relative to day 1 of same group
Experimental: as §2, §3

[4] = 20 mg/day by gavage for 21 days, day 22
[5] = 30 mg/day by gavage for 21 days, day 22

For `Cc1c(C)c2c(c(C)c1OCC(=O)O)CC[C@@](C)(CCC[C@H](C)CCC[C@H](C)CCCC(C)C)O2` [Compound 1, 2,5,7,8-tetramethyl-(2R-(4R,8R,12-trimethyltridecyl)chroman-6-yloxy)acetic acid], the EC50 (MCF-7 cells) was 36 µM, the EC50 (MDA-MB-435 cells) was 30 µM and the “reduction of mean tumor weight vs vehicle control” value (shortened to “reduction of mean tumor weight”) ([1]; 20 mg/day by gavage for 21 days, day 21) was 20.7%. The “Mean tumor Weights (mg) Following Treatments” value (from here on “Mean tumor Weights”) ([1]; 20 mg/day gavage, day 1) was 70.1 mg, the “Percent mean tumor weight gain (mg) following treatments” value (from here on “Percent mean tumor weight gain”) ([1]; 20 mg/day gavage, day 1) was 100% and the “Mean tumor Weights” value ([1]; 20 mg/day gavage, day 4) was 85.8 mg. The “Percent mean tumor weight gain” value ([1]; 20 mg/day gavage, day 4) was 122.4%, the “Mean tumor Weights” value ([1]; 20 mg/day gavage, day 7) was 123.9 mg and the “Percent mean tumor weight gain” value ([1]; 20 mg/day gavage, day 7) was 176.7%. The “Mean tumor Weights” value ([1]; 20 mg/day gavage, day 10) was 127.9 mg, the “Percent mean tumor weight gain” value ([1]; 20 mg/day gavage, day 10) was 182.5% and the “Mean tumor Weights” value ([1]; 20 mg/day gavage, day 14) was 147.2 mg. For the same molecule, the “Percent mean tumor weight gain” value ([1]; 20 mg/day gavage, day 14) was 210.0%, the “Mean tumor Weights” value ([1]; 20 mg/day gavage, day 17) was 143.8 mg and the “Percent mean tumor weight gain” value ([1]; 20 mg/day gavage, day 17) was 205.1%. For the same molecule, the “Mean tumor Weights” value ([1]; 20 mg/day gavage, day 21) was 179.4 mg, the “Percent mean tumor weight gain” value ([1]; 20 mg/day gavage, day 21) was 255.9% and the “reduction of mean tumor weight” value ([1]; 30 mg/day by gavage for 21 days, day 21) was 44.6%. For the same molecule, the “Mean tumor Weights” value ([1]; 30 mg/day gavage, day 1) was 68.1 mg, the “Percent mean tumor weight gain” value ([1]; 30 mg/day gavage, day 1) was 100% and the “Mean tumor Weights” value ([1]; 30 mg/day gavage, day 4) was 85.7 mg. For the same molecule, the “Percent mean tumor weight gain” value ([1]; 30 mg/day gavage, day 4) was 125.8%, the “Mean tumor Weights” value ([1]; 30 mg/day gavage, day 7) was 97.3 mg and the “Percent mean tumor weight gain” value ([1]; 30 mg/day gavage, day 7) was 142.9%. For the same molecule, the “Mean tumor Weights” value ([1]; 30 mg/day gavage, day 10) was 98.4 mg, the “Percent mean tumor weight gain” value ([1]; 30 mg/day gavage, day 10) was 144.5% and the “Mean tumor Weights” value ([1]; 30 mg/day gavage, day 14) was 126.6 mg. The “Percent mean tumor weight gain” value ([1]; 30 mg/day gavage, day 14) was 185.9%, the “Mean tumor Weights” value ([1]; 30 mg/day gavage, day 17) was 118.7 mg and the “Percent mean tumor weight gain” value ([1]; 30 mg/day gavage, day 17) was 174.3%. The “Mean tumor Weights” value ([1]; 30 mg/day gavage, day 21) was 125.2 mg, the “Percent mean tumor weight gain” value ([1]; 30 mg/day gavage, day 21) was 178.6% and the “reduction of mean tumor weight” value [2, 4] was 31.5%. For the same molecule, the “Mean tumor Weights” value ([2]; 20 mg/day gavage, day 1) was 66.5 mg, the “Percent mean tumor weight gain” value ([2]; 20 mg/day gavage, day 1) was 100% and the “Mean tumor Weights” value ([2]; 20 mg/day gavage, day 5) was 103.5 mg. The “Percent mean tumor weight gain” value ([2]; 20 mg/day gavage, day 5) was 155.6%, the “Mean tumor Weights” value ([2]; 20 mg/day gavage, day 8) was 137.9 mg and the “Percent mean tumor weight gain” value ([2]; 20 mg/day gavage, day 8) was 207.4%. For the same molecule, the “Mean tumor Weights” value ([2]; 20 mg/day gavage, day 12) was 208 mg, the “Percent mean tumor weight gain” value ([2]; 20 mg/day gavage, day 12) was 312.8% and the “Mean tumor Weights” value ([2]; 20 mg/day gavage, day 15) was 254.8 mg. The “Percent mean tumor weight gain” value ([2]; 20 mg/day gavage, day 15) was 383.2%, the “Mean tumor Weights” value ([2]; 20 mg/day gavage, day 19) was 362.2 mg and the “Percent mean tumor weight gain” value ([2]; 20 mg/day gavage, day 19) was 362.2%. The “Mean tumor Weights” value ([2]; 20 mg/day gavage, day 22) was 370.5 mg, the “Percent mean tumor weight gain” value ([2]; 20 mg/day gavage, day 22) was 544.7% and the “reduction of mean tumor weight” value [2, 5] was 24.8%. The “Mean tumor Weights” value ([2]; 30 mg/day gavage, day 1) was 67.8 mg, the “Percent mean tumor weight gain” value ([2]; 30 mg/day gavage, day 1) was 100% and the “Mean tumor Weights” value ([2]; 30 mg/day gavage, day 5) was 102.5 mg. The “Percent mean tumor weight gain” value ([2]; 30 mg/day gavage, day 5) was 151.2%, the “Mean tumor Weights” value ([2]; 30 mg/day gavage, day 8) was 131.3 mg and the “Percent mean tumor weight gain” value ([2]; 30 mg/day gavage, day 8) was 193.7%. The “Mean tumor Weights” value ([2]; 30 mg/day gavage, day 12) was 241.2 mg, the “Percent mean tumor weight gain” value ([2]; 30 mg/day gavage, day 12) was 355.8% and the “Mean tumor Weights” value ([2]; 30 mg/day gavage, day 15) was 256.8 mg. For the same molecule, the “Percent mean tumor weight gain” value ([2]; 30 mg/day gavage, day 15) was 378.8%, the “Mean tumor Weights” value ([2]; 30 mg/day gavage, day 19) was 379.9 mg and the “Percent mean tumor weight gain” value ([2]; 30 mg/day gavage, day 19) was 379.9%. The “Mean tumor Weights” value ([2]; 30 mg/day gavage, day 22) was 407 mg, the “Percent mean tumor weight gain” value ([2]; 30 mg/day gavage, day 22) was 560.3% and the “reduction of mean tumor weight” value [3, 4] was 33.3%. The “Mean tumor Weights” value ([3]; 20 mg/day gavage, day 1) was 59.5 mg, the “Percent mean tumor weight gain” value ([3]; 20 mg/day gavage, day 1) was 100% and the “Mean tumor Weights” value ([3]; 20 mg/day gavage, day 5) was 84.0 mg. The “Percent mean tumor weight gain” value ([3]; 20 mg/day gavage, day 5) was 141.2%, the “Mean tumor Weights” value ([3]; 20 mg/day gavage, day 8) was 97.0 mg and the “Percent mean tumor weight gain” value ([3]; 20 mg/day gavage, day 8) was 163.0%. The “Mean tumor Weights” value ([3]; 20 mg/day gavage, day 12) was 124.6 mg, the “Percent mean tumor weight gain” value ([3]; 20 mg/day gavage, day 12) was 209.4% and the “Mean tumor Weights” value ([3]; 20 mg/day gavage, day 15) was 147.3 mg. The “Percent mean tumor weight gain” value ([3]; 20 mg/day gavage, day 15) was 247.6%, the “Mean tumor Weights” value ([3]; 20 mg/day gavage, day 19) was 198.0 mg and the “Percent mean tumor weight gain” value ([3]; 20 mg/day gavage, day 19) was 332.8%. For the same molecule, the “Mean tumor Weights” value ([3]; 20 mg/day gavage, day 22) was 248.2 mg, the “Percent mean tumor weight gain” value ([3]; 20 mg/day gavage, day 22) was 417.1% and the “reduction of mean tumor weight” value [3, 5] was 34.5%. The “Mean tumor Weights” value ([3]; 30 mg/day gavage, day 1) was 40.0 mg, the “Percent mean tumor weight gain” value ([3]; 30 mg/day gavage, day 1) was 100% and the “Mean tumor Weights” value ([3]; 30 mg/day gavage, day 5) was 83.0 mg. The “Percent mean tumor weight gain” value ([3]; 30 mg/day gavage, day 5) was 139.5%, the “Mean tumor Weights” value ([3]; 30 mg/day gavage, day 8) was 96.7 mg and the “Percent mean tumor weight gain” value ([3]; 30 mg/day gavage, day 8) was 162.5%. For the same molecule, the “Mean tumor Weights” value ([3]; 30 mg/day gavage, day 12) was 129.3 mg, the “Percent mean tumor weight gain” value ([3]; 30 mg/day gavage, day 12) was 217.3% and the “Mean tumor Weights” value ([3]; 30 mg/day gavage, day 15) was 144.1 mg. The “Percent mean tumor weight gain” value ([3]; 30 mg/day gavage, day 15) was 242.2%, the “Mean tumor Weights” value ([3]; 30 mg/day gavage, day 19) was 176.1 mg and the “Percent mean tumor weight gain” value ([3]; 30 mg/day gavage, day 19) was 296.0%. The “Mean tumor Weights” value ([3]; 30 mg/day gavage, day 22) was 243.8 mg and the “Percent mean tumor weight gain” value ([3]; 30 mg/day gavage, day 22) was 409.7%.
